US12629410B2, “Multi-antigenic peptide mimics of gonococcal lipo-oligosaccharide (LOS) epitopes” (priority 2019, dated 2026)
Several values for one entry are separate records, joined by “and”; a condition that tells them apart may be missing. Identical values can stand only once. Entries after “also recorded” stand apart in the source; their conditions may differ. Like-named read-outs stand apart in the source and are kept apart here. Bridges are numbered along the chain shown (N, C = ends).

Assays:
N. gonorrhoeae MS11 = assay: Serum bactericidal assay, immune mouse sera plus human complement; format: cell-based; details: for killing of MS11, all 13 immune sera: 50 μg/dose schedule
Procedure: (§1) Because earlier it was observed that sera from naïve and mice given adjuvant alone manifest bactericidal activity mediated by IgM, mouse IgM was depleted from all sera collected as part of immunization studies. Sera from mice diluted 1:1 in PBS was mixed with anti-mouse IgM agarose (Sigma; binding capacity ≥0.4 mg/ml) (1 volume of packed agarose to 1 volume of serum diluted 1:1) in a 2.0 ml microspin filter column (Costar) with a pore size of 0.22 μM) for 15 min at 22° C. Filter-sterilized IgM depleted sera were collected by centrifugation of the mixture at 1000 g for 2 min and heat-inactivated (56° C. for 30 min) to eliminate intrinsic complement activity in mouse serum prior to use in serum bactericidal assays where human complement was substituted.
(§2) Serum bactericidal assays were performed. Bacteria that had been harvested from an overnight culture on chocolate agar plates were repassaged onto fresh chocolate agar and allowed to grow for 6 h at 37° C. in an atmosphere containing 5% CO2. Bacteria were then suspended in HBSS containing 1 mM MgCl2 and 0.15 mM CaCl2) (HBSS++) for use in serum bactericidal assays. Briefly, about 2000 colony forming units (CFUs) of N. gonorrhoeae FA090 were incubated with serial dilutions of immune mouse sera (heat-inactivated and IgM-depleted) in the presence or absence of 20% normal human serum (NHS) as a source of human complement. Serum bactericidal assays with strain MS11 were performed with IgG and IgM depleted NHS (Human complement; Pel-Freez) because this strain is susceptible to killing by NHS. Final volumes of bactericidal reaction mixtures were 150 μl. Aliquots of 25-μl reaction mixtures were plated onto chocolate agar in duplicate at the beginning of the assay (to) and again after incubation at 37° C. for 30 min (t30). Survival was calculated as the number of viable colonies at t30 relative to t0.

[1] = test system: N. gonorrhoeae strain FA1090; assay: Mouse vaginal colonization model (protection experiment); format: in vivo; details: BALB/c n=14/group; TMCP2 50 μg + GLA-SE, 3 doses 2 weeks apart
Procedure: Use of animals in this study was performed in strict accordance with the recommendations in the Guide for the Care and Use of Laboratory Animals of the National Institutes of Health. The protocol was approved by the Institutional Animal Care and Use Committee (IACUC) at the University of Massachusetts Medical School. The BALB/c mouse model of vaginal colonization described by Jerse was used (25). Two weeks after the last immunization, mice in the diestrus phase of the estrous cycle were started on treatment (that day) with 0.1 mg PREMARIN® (Pfizer; a mixture of sodium estrone sulfate and sodium equilin sulfate also containing sodium sulfate conjugates of 17α-dihydroequilin, 17α-estradiol and 17β-dihydroequilin) in 200 μl of water, given subcutaneously on each of three days; −2, 0 and +2 days (before, the day of and after gonococcal inoculation) to prolong the estrus phase of the reproductive cycle and promote susceptibility to N. gonorrhoeae infection. […]
Experiments that compared clearance of N. gonorrhoeae in independent groups of mice estimated and tested three characteristics of the data (13): 1) time to clearance; 2) longitudinal trends in mean log10 CFU; 3) and the cumulative CFU as area under the curve (AUC). […] A quadratic or cubic function in time was determined to provide the best fit; random slopes were linear in time. […]

N. gonorrhoeae FA1090 = assay: Serum bactericidal assay, immune mouse sera plus human complement; format: cell-based; details: for immune sera showing >50% killing: IgM-depleted sera at 1:30 (3.3%); for immune sera showing <50% survival (>50% killing): intact sera at 3.3% (1:30)
Procedure: as §1, with “Because earlier it was observed that sera from naïve and mice given adjuvant alone manifest bactericidal activity mediated by IgM, mouse IgM was depleted from all sera collected as part of immunization studies.” left out
as §2

15253 ΔlgtG LOS = assay: ELISA of immune sera against 2C7-negative LOS (specificity); format: in vivo, N. gonorrhoeae; details: sera of mice immunized with TMCP2 + GLA-SE
Procedure: Microtiter wells were coated with LOS purified from 15253 or 15253 ΔlgtG (80 μg/ml) in PBS as described previously. Serial dilutions of immune sera were dispensed into wells and bound anti-LOS Ab was disclosed with anti-mouse IgG conjugated to alkaline phosphatase. A standard curve for mouse IgG was generated by coating wells with anti-mouse IgG (Sigma) and pure mouse IgG (Sigma) also as described previously.

[2] = test system: N. gonorrhoeae strain 15253; assay: Serum bactericidal activity of antisera raised against tetra-MAP candidates; format: cell-based; details: post-dose 5 IgM-depleted antiserum 1:3, 17% NHS; Sigma MPL adjuvant; compared with TMCP3, TMCP4
Procedure: See Tables 1A-1K for a description of peptides. Post-dose 5 mouse anti-serum (IgM depleted) was tested against N. gonorrhoeae strain 15253 at a final dilution of 1:3 in the presence of 17% normal human serum (NHS) as the complement source. Y-axis, % killing ([CFU at t0−CFU at t30/CFU at t0]×100).
as §2

[3] = test system: LOS purified from N. gonorrhoeae strain 15253; format: in vivo; details: for mean anti-LOS IgG level: n=13
[4] = TMCP2 50 μg + GLA-SE, 3 doses 2 weeks apart, 11 mice

For “[(CH2-CO-GPIPVLDENGLFAPGPC)-K-OH]4 ({CH2CO}-GPIPVLDENGLFAPGPCK-OH; thioether N-17; also: tetrameric MAP) [TMCP2]”, the “killing of MS11, all 13 immune sera” value (N. gonorrhoeae MS11; immune serum 3.3%) was > 60%, the “killing of MS11, all 13 immune sera” value (N. gonorrhoeae MS11; immune serum 6.7%) was > 98% and the “complement-dependent killing of MS11, all sera in each group” value (N. gonorrhoeae MS11; 13 sera per group after 3rd dose, 16.7% (1/6 dilution)) was > 50%. The “Survival in intact immune serum” value (N. gonorrhoeae MS11; Table 6, TMCP2 50 μg/dose + GLA-SE, immune serum 6.7% (1/15), 6.7% IgG/IgM-depleted NHS (Pel-Freez)) was 0.00% and 1.52% and 0.47% and 0.93%, the “gonococcal colonization, biweekly schedule” value [1] was “effectively attenuated gonococcal colonization” and the “killing of FA1090, one serum sample” value (N. gonorrhoeae FA1090; IgM-depleted post-dose 3 serum, 1:6 (16.7%), 50 μg/dose group) was 47%. For the same substance, the “immune sera showing >50% killing” value (N. gonorrhoeae FA1090; 100 μg/dose group) was “Three of five”, the “immune sera showing >50% killing” value (N. gonorrhoeae FA1090; 200 μg/dose group) was “three of four” and the “Survival in intact immune serum” value (N. gonorrhoeae FA1090; Table 4, TMCP2 200 μg/dose + GLA-SE, immune serum 16.7% (1/6), 16.7% NHS) was 0.00% and 6.19%. The “killing of FA1090 by intact immune sera, all sera” value (N. gonorrhoeae FA1090; final dilution 1:6 (16.7% immune serum), TMCP2 50, 100, 200 μg/dose + GLA-SE) was > 50%, the “immune sera showing <50% survival (>50% killing)” value (“immune sera showing <50% survival” for short) (N. gonorrhoeae FA1090; 50 μg/dose group) was “Four of 5” and the “immune sera showing <50% survival” value (N. gonorrhoeae FA1090; 100 μg/dose group) was 3 of 5. For the same substance, the “immune sera showing <50% survival” value (N. gonorrhoeae FA1090; 200 μg/dose group) was 3 of 4, the “IgG reactivity of immune sera with 15253 ΔlgtG LOS” value (15253 ΔlgtG LOS) was “non-reactivity; also recorded: no IgG binding” and the “complement-dependent bactericidal activity of antisera” value [2] was “maximal”. For the same substance, the “anti-LOS IgG in vaginal swabs” value ([3]; 5 mice, TMCP2 50 μg/dose + GLA-SE at 0, 2, 4 weeks, 2 weeks after third dose) was “detected”, the “anti-LOS IgG levels in intact immune sera, all mice” value ([3]; BALB/c, n=13 per group, TMCP2 50, 100 or 200 μg/dose + GLA-SE, 3 weeks apart) was “exceeded 2 μg/ml” and the “anti-LOS IgG response in 3 of 5 mice” value ([3]; BALB/c, TMCP2 50 μg dose + GLA-SE, 3 doses) was “exceeded 10 μg/ml”. For the same substance, the “anti-LOS IgG response, every mouse” value ([3]; BALB/c, TMCP2 50, 100 or 200 μg + GLA-SE, 3 doses 3 weeks apart, two weeks after final boosting) was “exceeded 2 μg/ml”, the “mean anti-LOS level, post-dose 3 immune sera” value [3, 4] was 2.31 µg/mL and the “range of anti-LOS level, post-dose 3 immune sera” value [3, 4] was 1.33 to 3.59 µg/mL. For the same substance, the “mean anti-LOS IgG level” value ([3]; TMCP2 50 μg/dose + GLA-SE, 3 doses 3 weeks apart) was 4.98 µg/mL, the “mean anti-LOS IgG level” value ([3]; TMCP2 100 μg/dose + GLA-SE, 3 doses 3 weeks apart) was 4.06 µg/mL and the “mean anti-LOS IgG level” value ([3]; TMCP2 200 μg/dose + GLA-SE, 3 doses 3 weeks apart) was 3.8 µg/mL. For the same substance, the “IgM response to the 2C7 epitope” value ([3]; pooled post-dose 3 sera, IgM binding to 15253 LOS vs 15253 ΔlgtG LOS) was “no apparent IgM response” and the “anti-LOS titers in immunization experiments” value ([3]; tetrapeptides 50 μg/dose plus Sigma MPL adjuvant, BALB/c, FIG. 10) was “higher anti-LOS titers than TMCP4”.
